Measured values reported in patent US11332490B1, “Compounds and methods for treating osteoarthritis” (Academia Sinica, priority 2021, dated 2022).
pEC50, pIC50, pKd, pKi: −log10 of the molar value. “Also recorded” adds a separate entry of the source. Each block holds one compound with its values, some of them ahead of it.

Key:
[1] = biological target: T1, Sulf-1 (Homo sapiens, UniProt Q8IWU6); test: Sulf-1 inhibition assay (4-MU released from 4-MUS)
Description: Sulf-1 inhibition assay. […] The data obtained were fitted to the Michaelis-Menten equation using the GraphPad to determine the enzyme inhibition parameters.

[2] = biological target: T1, Sulf-1; test: Competition assay with 4-MUS substrate (fluorogenic); assay type: biochemical; parameters: made in house; details: for pEC50: competition with 4-MUS for Sulf-1
Procedure: Competition assay with 4-MUS substrate. […] A control mixture without the competing substrate was defined as 100% fluorescent intensity, and the sample with substrate was determined as percentage of fluorescent intensity: (Fluorescent intensity of substrate sample)/(Fluorescent intensity of control sample).
HS oligosaccharides of Example 1.2 were used as competing substrates in the presence of 4-MUS for the identification of Sulf-1 substrate. Compounds 18-20 as well as the commercially available heparin 3000 were independently assessed for their competing effect on 4-MUS cleavage by Sulf-1 to yield the fluorescent 4-methylumbelliferone (4-MU) (FIG. 1, (A)).

[3] = biological target: T2, human Sulf-1d417-726 (Homo sapiens, UniProt Q8IWU6, DEL417-726); test: Determination of dissociation constant (KD) using surface plasmon resonance; assay type: binding; details: compound immobilized on CM5 sensor chip, 1:1 Langmuir model
T2 construct: made in house
Procedure: Determination of dissociation constant (KD) using surface plasmon resonance. Compound 46 was immobilized on the surface of a Biacore sensor chip (GE Healthcare) according to the manufacturer's guidelines using Biacore T200 system. The kinetic analysis study was performed at different concentrations of hSulf1d417-726 protein upon serial dilution to 250, 125, 63, 31 and 15 nM in running buffer [20 mM NaOAc (pH 5.0), 150 mM NaCl, and 0.05% Tween 20] and injected on to the chip surface with a flow rate of 25 μL/min at 25° C. In each run, the chip sensor surface was regenerated by injecting 4 M NaCl. The titration curves fit well to a 1:1 Langmuir binding model for calculations of equilibrium constants.
With highest inhibitory activity, the binding affinity of the inhibitor 46 with human Sulf-1 was further measured by surface plasmon resonance (SPR). The hydrophilic domain-deleted mutant of Sulf-1, namely human Sulf-1d417-726, lacking two furin-type proteinase cleavage sites responsible for forming the disulfide-bonded heterodimers of 75- and 50-kDa subunits with retained enzyme activity was constructed according to the literature report. Compound 46 was immobilized on the CM5 sensor chip, and aliquots of human Sulf-1d417-726 at gradient concentrations were applied onto the chip.

[4] = biological target: T1, Sulf-1; test: HPLC assay of sulfate ion release from the substrate by Sulf-1; details: substrate 480 μM, treated with human Sulf-1, HPLC
Procedure: (§1) HPLC assay. […] Release of the sulfate ion from the substrate was quantified via HPLC. Each sample (5 μL) was injected to AS9HC anion-exchange column (Dionex), and the sulfate ion was eluted by 9 mM Na2CO3 then analyzed by a conductivity detector (PROD, AERS500, 4 mm, Thermal) with reagent-free controller (PROD, RFC-10) and compared with a standard curve with Na2SO4 (Merck) from 0 to 500 μM.

[5] = tested on: NCCCCCO[C@@H]1OC(C(=O)O)C(O[C@H]2OC(COS(=O)(=O)O)[C@@H](O[C@@H]3OC(C(=O)O)C(O)[C@@H](O)C3OS(=O)(=O)O)[C@H](O)C2NS(=O)(=O)O)[C@@H](O)C1OS(=O)(=O)O; test: purified protein, by the assay type; details: other: released sulfate at different substrate concentrations; pH 7.4; 37.0 °C
Procedure: as §1

Compound: NCCCCCO[C@@H]1O[C@@H](C(=O)O)[C@@H](O[C@H]2O[C@H](COS(N)(=O)=O)[C@@H](O[C@@H]3O[C@@H](C(=O)O)[C@@H](O)[C@H](O)[C@H]3OS(=O)(=O)O)[C@H](O)[C@H]2NS(=O)(=O)O)[C@H](O)[C@H]1OS(=O)(=O)O [Compound 46]
pIC50 [1]: 6.28 | pKi [1]: 6.44 | pKd [3]: 7.92

Compound: NCCCCCO[C@@H]1OC(C(=O)O)C(O[C@@H]2OC(COS(=O)(=O)O)[C@@H](O)C(O)C2NS(=O)(=O)O)[C@@H](O)C1OS(=O)(=O)O (stereo partly drawn) [Compound 18]
sulfate concentration upon hydrolysis by Sulf-1 [4]: 5.9 µM | fluorescence intensity (4-MUS hydrolysis, % of control) ([2]; competitor 320 μM, 4-MUS 4.35 mM, 4-MUS with Sulf-1 in pure water = 100%): 94.5%

Compound: human Sulf-1 (Homo sapiens)
Km [5]: 25.8 µM

Compound: NCCCCCO[C@@H]1O[C@@H](C(=O)O)[C@@H](O[C@H]2O[C@H](COS(=O)(=O)O)[C@@H](O[C@@H]3O[C@@H](C(=O)O)[C@@H](O[C@H]4O[C@H](COS(=O)(=O)O)[C@@H](O)[C@H](O)[C@H]4NS(=O)(=O)O)[C@H](O)[C@H]3OS(=O)(=O)O)[C@H](O)[C@H]2NS(=O)(=O)O)[C@H](O)[C@H]1OS(=O)(=O)O [Compound 19]
sulfate concentration upon hydrolysis by Sulf-1 [4]: 46.2 µM | pEC50 [2]: 4.06 | competing effect on 4-MUS cleavage by Sulf-1 (in words) ([2]; competitor 320 μM (0.32 mM), 4-MUS 4.35 mM): strongly compete with 4-MUS; also recorded: good binder

Second part, the compound after the results:

pIC50 [1]: 4.53
Compound: NCCCCCO[C@@H]1O[C@@H](C(=O)O)[C@@H](O[C@H]2O[C@H](COS(N)(=O)=O)[C@@H](O[C@@H]3O[C@@H](C(=O)O)[C@@H](O[C@H]4O[C@H](COS(N)(=O)=O)[C@@H](O)[C@H](O)[C@H]4NS(=O)(=O)O)[C@H](O)[C@H]3OS(=O)(=O)O)[C@H](O)[C@H]2NS(=O)(=O)O)[C@H](O)[C@H]1OS(=O)(=O)O [Compound 47]

pEC50 [2]: 5.42
Compound: NCCCCCO[C@@H]1OC(C(=O)O)C(O[C@H]2OC(COS(=O)(=O)O)[C@@H](O[C@@H]3OC(C(=O)O)C(O)[C@@H](O)C3OS(=O)(=O)O)[C@H](O)C2NS(=O)(=O)O)[C@@H](O)C1OS(=O)(=O)O (stereo partly drawn) [Compound 36]

inhibition at 700 µM ([1]; read-out: Sulf-1 activity inhibited): 20%
Compound: NCCCCCO[C@@H]1OC(C(=O)O)C(O[C@H]2OC(COS(N)(=O)=O)[C@@H](O)C(O)C2NS(=O)(=O)O)[C@@H](O)C1OS(=O)(=O)O (stereo partly drawn) [Compound 45]
